Experimental data published in patent publication US4889861A, “Substituted imidazo[1,5-a]pyridine derivatives and other substituted bicyclic derivatives and their use as aromatase inhibitors” (Ciba-Geigy Corp., priority 1987, dated 1989).
pIC50: −log10 of the molar value.

Experiments:
aromatase = experiment: in vivo inhibition of aromatase activity: suppression of ovarian estrogen content of PMS-hCG primed female rats; details: Rattus norvegicus, po
Experimental: Twenty-one-day-old female rats are injected subcutaneously with 10 IU pregnant mare serum gonadotropin (PMS). Two days later the same rats are injected subcutaneously with 30 IU human chorionic gonadrotropin (hCG). On the day following the hCG treatment the rats are injected subcutaneously with either propylene glycol (0.2 ml:p.o.) or with various doses of the test compound. […] Four hours after the injection of androstenedione the rats are killed and their ovaries removed and trimmed free of adhering tissue and stored in pairs at -40° C. To determine the total estrogen content of the ovaries, 1.5 ml of 0.05M aqueous potassium phosphate buffer, pH 7.4, and 0.2 ml of 0.1N aqueous sodium hydroxide are added to the tissues which are then homogenized. The homogenate is extracted with 15 ml of diethyl ether, 5 ml aliquots are radioimmunoassayed with antiserum having 100% cross reactivity with estrone, estradiol and estriol. The results are expressed as ng estrogen/pair of ovaries.

thromboxane synthetase = biological target: T1, thromboxane synthetase (Homo sapiens, UniProt P24557); experiment: in vitro inhibition of the thromboxane synthetase enzyme (TxB2/PGF2 ratio); type: biochemical; details: 30 min incubation
T1 construct: crude microsomal preparation of thromboxane synthetase from lysed hyman platelets; from tissue; host or cells: lysed human (printed 'hyman') platelets, crude microsomes
T1 sequence (P24557 1-533): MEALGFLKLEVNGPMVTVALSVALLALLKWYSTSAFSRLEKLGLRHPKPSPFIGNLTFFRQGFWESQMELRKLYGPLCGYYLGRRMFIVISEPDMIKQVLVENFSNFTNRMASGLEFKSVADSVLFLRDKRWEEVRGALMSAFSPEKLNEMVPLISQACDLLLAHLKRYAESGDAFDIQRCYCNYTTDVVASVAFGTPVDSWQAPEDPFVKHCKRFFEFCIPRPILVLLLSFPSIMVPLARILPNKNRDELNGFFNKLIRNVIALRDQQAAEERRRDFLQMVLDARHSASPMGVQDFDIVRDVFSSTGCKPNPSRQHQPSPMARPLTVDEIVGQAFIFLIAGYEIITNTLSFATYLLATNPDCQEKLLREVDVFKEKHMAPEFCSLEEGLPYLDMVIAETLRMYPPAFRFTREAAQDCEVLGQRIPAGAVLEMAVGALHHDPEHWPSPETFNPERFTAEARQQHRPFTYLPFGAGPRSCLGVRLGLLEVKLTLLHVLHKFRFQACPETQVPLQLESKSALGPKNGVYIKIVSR
Experimental: Res. Comm. 74, 1432 (1977); the testing procedure is as follows:
^14 C-arachidonic acid is incubated with an enzyme preparation consisting of solubilized and partially purified prostaglandin cyclo-oxygenase from sheep seminal vesicles and a crude microsomal preparation of thromboxane synthetase from lysed hyman platelets. The test compound (dissolved in buffer, or if necessary, in a small amount of ethanol) is added to the incubation medium. At the end of the incubation period (30 minutes), Prostaglandin E2 (PGE2) is reduced to a mixture of Prostaglandin F2 α and F2 β (PGF2 α+β) by addition of sodium borohydride. The radioactive products and excess substrate are extracted into ethyl acetate; the extract is evaporated to dryness; the residue is dissolved in acetone, spotted on thin-layer plates and chromatographed in the solvent system toluene: acetone: glacial acetic acid (100 volumes: 100 volumes: 3 volumes). The radioactive zones are located; those corresponding to Thromboxane B2 (T×B2) and PGF2 α+β are transferred to liquid scintillation vials and counted. The ratio of counts for T×B2 /PGF2 α+β is calculated for each concentration of test compound and IC50 values are determined graphically as the concentration of test compound at which the ratio of T×B2 /PGF2 α+β is reduced to 50% of the control value.

Row | pIC50 (thromboxane synthetase) | SMILES | minimal effective dose (aromatase) [mg/kg]
1 |  | N#Cc1ccc(-c2cccc3cncn23)cc1 [Example 3, 5-(p-Cyanophenyl)imidazo[1,5-a]pyridine] | 0.013
2 |  | CCOC(=O)CC1CCc2cncn2C1c1ccc(C#N)cc1 (stereo not drawn) [Example 33, 5-(4-cyanophenyl)-6-ethoxycarbonylmethyl-5,6,7,8-tetrahydroimidazo[1,5-a]pyridine] | 0.346
3 | ~6.05 | O=C(O)c1ccc(C2CCCc3cncn32)cc1 (stereo not drawn) [Example 9, 5-(p-Carboxyphenyl)-5,6,7,8-tetrahydroimidazo[1,5-a]-pyridine] | 
